Laboratory results reported in PubChem BioAssay (NCI).
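Five concentrations, 48 hours, 96-well plates. At the GI50, growth is halved. TGI is the concentration that stops growth completely.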

Assays:
Assay in all cases: DTP human tumour cell line panel, 48 h
UO-31 renal = test system: UO-31 renal
MOLT-4 leukemia = test system: MOLT-4 leukemia
NCI-H23 lung = test system: NCI-H23 lung
HOP-92 NSCLC = test system: HOP-92 NSCLC
LOX IMVI melanoma = test system: LOX IMVI melanoma
HS 578T breast = test system: HS 578T breast
SW-620 colon = test system: SW-620 colon
U251 CNS = test system: U251 CNS
KM12 colon = test system: KM12 colon
OVCAR-3 ovarian = test system: OVCAR-3 ovarian
OVCAR-8 ovarian = test system: OVCAR-8 ovarian
SN12C renal = test system: SN12C renal
A549 NSCLC = test system: A549 NSCLC
HOP-62 NSCLC = test system: HOP-62 NSCLC
SF-539 CNS = test system: SF-539 CNS
HCT-116 colon = test system: HCT-116 colon
TK-10 renal = test system: TK-10 renal
SK-MEL-2 melanoma = test system: SK-MEL-2 melanoma
RPMI-8226 leukemia = test system: RPMI-8226 leukemia
RXF 393 renal = test system: RXF 393 renal
COLO 205 colon = test system: COLO 205 colon
SK-MEL-5 melanoma = test system: SK-MEL-5 melanoma
NCI-H226 lung = test system: NCI-H226 lung
SR leukemia = test system: SR leukemia
NCI-H460 lung = test system: NCI-H460 lung
DU-145 prostate = test system: DU-145 prostate
ACHN renal = test system: ACHN renal
IGROV1 ovarian = test system: IGROV1 ovarian
OVCAR-5 ovarian = test system: OVCAR-5 ovarian
SNB-19 CNS = test system: SNB-19 CNS
HT29 colon = test system: HT29 colon
HL-60(TB) leukemia = test system: HL-60(TB) leukemia
MDA-MB-231 breast = test system: MDA-MB-231 breast
K-562 leukemia = test system: K-562 leukemia
BT-549 breast = test system: BT-549 breast
HCT-15 colon = test system: HCT-15 colon
NCI-H522 lung = test system: NCI-H522 lung
SF-295 CNS = test system: SF-295 CNS
SK-MEL-28 melanoma = test system: SK-MEL-28 melanoma
CAKI-1 renal = test system: CAKI-1 renal
NCI/ADR-RES ovarian = test system: NCI/ADR-RES ovarian
UACC-62 melanoma = test system: UACC-62 melanoma
SF-268 CNS = test system: SF-268 CNS
PC-3 prostate = test system: PC-3 prostate
HCC-2998 colon = test system: HCC-2998 colon
786-0 renal = test system: 786-0 renal
M14 melanoma = test system: M14 melanoma
SK-OV-3 ovarian = test system: SK-OV-3 ovarian
CCRF-CEM leukemia = test system: CCRF-CEM leukemia
OVCAR-4 ovarian = test system: OVCAR-4 ovarian
T-47D breast = test system: T-47D breast
EKVX NSCLC = test system: EKVX NSCLC
A498 renal = test system: A498 renal
UACC-257 melanoma = test system: UACC-257 melanoma
SNB-75 CNS = test system: SNB-75 CNS
MDA-MB-435 = test system: MDA-MB-435
MALME-3M melanoma = test system: MALME-3M melanoma

Compound: O=C(NCCCCCCCNC(=O)OCc1ccc2c(Cl)cc(Cl)c(O)c2n1)OCc1ccc2c(Cl)cc(Cl)c(O)c2n1
- GI50 (UO-31 renal): 321 nM
- TGI (UO-31 renal): 1290 nM
- GI50 (MOLT-4 leukemia): 367 nM
- TGI (MOLT-4 leukemia): 2000 nM
- GI50 (NCI-H23 lung): 1490 nM
- TGI (NCI-H23 lung): 3200 nM
- GI50 (HOP-92 NSCLC): 1070 nM
- TGI (HOP-92 NSCLC): 2710 nM
- GI50 (LOX IMVI melanoma): 187 nM
- TGI (LOX IMVI melanoma): 379 nM
- GI50 (HS 578T breast): 1400 nM
- TGI (HS 578T breast): 5350 nM
- GI50 (SW-620 colon): 273 nM
- TGI (SW-620 colon): 744 nM
- GI50 (U251 CNS): 1600 nM
- TGI (U251 CNS): 3090 nM
- GI50 (KM12 colon): 1180 nM
- TGI (KM12 colon): 2870 nM
- GI50 (OVCAR-3 ovarian): 298 nM
- TGI (OVCAR-3 ovarian): 838 nM
- GI50 (OVCAR-8 ovarian): 395 nM
- TGI (OVCAR-8 ovarian): 1830 nM
- GI50 (SN12C renal): 774 nM
- TGI (SN12C renal): 2170 nM
- GI50 (A549 NSCLC): 1850 nM
- TGI (A549 NSCLC): 3760 nM
- GI50 (HOP-62 NSCLC): 1400 nM
- TGI (HOP-62 NSCLC): 3220 nM
- GI50 (SF-539 CNS): 414 nM
- TGI (SF-539 CNS): 1480 nM
- GI50 (HCT-116 colon): 241 nM
- TGI (HCT-116 colon): 630 nM
- GI50 (TK-10 renal): 1400 nM
- TGI (TK-10 renal): 2730 nM
- GI50 (SK-MEL-2 melanoma): 1330 nM
- TGI (SK-MEL-2 melanoma): 2780 nM
- GI50 (RPMI-8226 leukemia): 247 nM
- TGI (RPMI-8226 leukemia): 735 nM
- GI50 (RXF 393 renal): 812 nM
- TGI (RXF 393 renal): 2130 nM
- GI50 (COLO 205 colon): 564 nM
- TGI (COLO 205 colon): 2000 nM
- GI50 (SK-MEL-5 melanoma): 966 nM
- TGI (SK-MEL-5 melanoma): 2260 nM
- GI50 (NCI-H226 lung): 557 nM
- TGI (NCI-H226 lung): 1590 nM
- GI50 (SR leukemia): 267 nM
- TGI (SR leukemia): 1410 nM
- GI50 (NCI-H460 lung): 1400 nM
- TGI (NCI-H460 lung): 3510 nM
- GI50 (DU-145 prostate): 672 nM
- TGI (DU-145 prostate): 1990 nM
- GI50 (ACHN renal): 260 nM
- TGI (ACHN renal): 698 nM
- GI50 (IGROV1 ovarian): 561 nM
- TGI (IGROV1 ovarian): 1410 nM
- GI50 (OVCAR-5 ovarian): 1690 nM
- TGI (OVCAR-5 ovarian): 3320 nM
- GI50 (SNB-19 CNS): 1590 nM
- TGI (SNB-19 CNS): 3060 nM
- GI50 (HT29 colon): 538 nM
- TGI (HT29 colon): 2460 nM
- GI50 (HL-60(TB) leukemia): 470 nM
- TGI (HL-60(TB) leukemia): 1970 nM
- GI50 (MDA-MB-231 breast): 1130 nM
- TGI (MDA-MB-231 breast): 2450 nM
- GI50 (K-562 leukemia): 319 nM
- TGI (K-562 leukemia): 4410 nM
- GI50 (BT-549 breast): 359 nM
- TGI (BT-549 breast): 1420 nM
- GI50 (HCT-15 colon): 221 nM
- TGI (HCT-15 colon): 542 nM
- GI50 (NCI-H522 lung): 303 nM
- TGI (NCI-H522 lung): 1150 nM
- GI50 (SF-295 CNS): 1730 nM
- TGI (SF-295 CNS): 3410 nM
- GI50 (SK-MEL-28 melanoma): 1170 nM
- TGI (SK-MEL-28 melanoma): 2420 nM
- GI50 (CAKI-1 renal): 378 nM
- TGI (CAKI-1 renal): 1550 nM
- GI50 (NCI/ADR-RES ovarian): 338 nM
- TGI (NCI/ADR-RES ovarian): 3590 nM
- GI50 (UACC-62 melanoma): 845 nM
- TGI (UACC-62 melanoma): 2130 nM
- GI50 (SF-268 CNS): 1280 nM
- TGI (SF-268 CNS): 2780 nM
- GI50 (PC-3 prostate): 625 nM
- TGI (PC-3 prostate): 2160 nM
- GI50 (HCC-2998 colon): 1650 nM
- TGI (HCC-2998 colon): 3140 nM
- GI50 (786-0 renal): 1400 nM
- TGI (786-0 renal): 2890 nM
- GI50 (M14 melanoma): 419 nM
- TGI (M14 melanoma): 1730 nM
- GI50 (SK-OV-3 ovarian): 3930 nM
- TGI (SK-OV-3 ovarian): 14000 nM
- GI50 (CCRF-CEM leukemia): 282 nM
- TGI (CCRF-CEM leukemia): 1320 nM
- GI50 (OVCAR-4 ovarian): 465 nM
- TGI (OVCAR-4 ovarian): 1620 nM
- GI50 (T-47D breast): 1330 nM
- TGI (T-47D breast): 3950 nM
- GI50 (EKVX NSCLC): 1550 nM
- TGI (EKVX NSCLC): 3220 nM
- GI50 (A498 renal): 1480 nM
- TGI (A498 renal): 2890 nM
- GI50 (UACC-257 melanoma): 1210 nM
- TGI (UACC-257 melanoma): 2600 nM
- GI50 (SNB-75 CNS): 905 nM
- TGI (SNB-75 CNS): 2430 nM
- GI50 (MDA-MB-435): 297 nM
- TGI (MDA-MB-435): 931 nM
- GI50 (MALME-3M melanoma): 1200 nM
- TGI (MALME-3M melanoma): 2530 nM
